Legend:
[1] = in vivo; cited from earlier work
[2] = test system: MeCP2-KO mouse hippocampal neurons; test: Phenotypic neuronal atrophy screening in miniaturized 96-well cultures, treatment DIV 3 to DIV 6 (MAP2/NeuN, NeuriteQuant); assay type: cell-based; settings: for total dendritic length (TDL) / terminal branches (EP): individually or in combination; for minimal effective concentration: Mus musculus, Hippocampal neuron, individual drugs, DIV 3 to DIV 6, read-out: minimum effective concentration in the in vitro assays
Description: Three morphological parameters were measured: 1) the area of the neuronal cell body (soma), 2) the total dendritic length (TDL), 3) the number of dendritic endpoints (EP).
The Kruskall-Wallis test was also performed in this phase, in order to compare non-parametric data between more than two groups: *p <0.05, **p<0.01, ***p<0.001.
To quantify the effects of the interactions, the same morphological parameters used to test the individual drugs at DIV 6 were measured, namely total dendritic length (TDL) and the number of terminal branches (EP = Endpoints).

Compound: Cc1ccc(C(=O)c2cc(O)c(O)c([N+](=O)[O-])c2)cc1 [tolcapone]
- capabilities to penetrate the blood-brain barrier [1]: excellent
- half-life [1]: 2.9 h

Compound: O=c1[nH]c(=O)n([C@H]2C[C@H](O)[C@@H](CO)O2)cc1I [idoxuridine]
- total dendritic length (TDL) ([2]; 0.1 µM, DIV 3 to DIV 6 (fig. 6A, 6B)): no positive effect
- terminal branches (EP) ([2]; 0.1 µM, DIV 3 to DIV 6 (fig. 6C, 6D)): no positive effect
- minimal effective concentration [2]: 10 µM

Compound: C=C1/C(=C\C=C2/CCC[C@]3(C)[C@@H]([C@H](C)/C=C/[C@@H](O)C4CC4)CC[C@@H]23)C[C@@H](O)C[C@@H]1O [calcipotriene]
- total dendritic length (TDL) ([2]; 1 µM, DIV 3 to DIV 6 (fig. 5A, 5B)): no positive effect
- terminal branches (EP) ([2]; 1 µM, DIV 3 to DIV 6 (fig. 5C, 5D)): no positive effect
- minimal effective concentration [2]: 10 µM

From patent EP4647069A1, “DRUGS AND COMPOSITIONS FOR USE IN THE TREATMENT OF RETT SYNDROME” (UNIVERSITA' DEGLI STUDI DI TRIESTE, priority 2024, dated 2025)
